The values below come from ChEMBL document CHEMBL1275405, “Population pharmacokinetics of levofloxacin, gatifloxacin, and moxifloxacin in adults with pulmonary tuberculosis” (Antimicrob Agents Chemother, 2008).

Structures are written as SMILES. Values after ≈ are worked out from the molar mass of the structure shown.

Data set [1] can be described thus: Tmax in tuberculosis patient at […], po administered for 7 days by HPLC. Type of data set: ADME, organism-based. The following applies: human, in vivo.
Data set [2] in a line: clinical. The conditions noted are these: human, in vivo, po, 400 mg/day.
Description: Tmax in tuberculosis patient at 400 mg/day, po administered for 7 days by HPLC
For data set [3], the system named is Mycobacterium tuberculosis. The data set can be described thus: microbe, parasite or virus in culture. The conditions noted are these: 168 h.
Description: Antimicrobial activity against Mycobacterium tuberculosis infected in patient at 400 mg/day, po administered for 7 days by HPLC
The nature of data set [4]: Clearance in tuberculosis patient at 1000 mg/day, po administered for 7 days measured after 24 hrs by HPLC. In kind it is ADME, organism-based. The conditions noted are these: human, in vivo.
For data set [5], the system named is Mycobacterium tuberculosis. In kind it is functional. The following applies: 168 h.
Data set [6] can be described thus: Ratio of fAUC in tuberculosis patient at 1000 mg/day, po administered for 7 days to MIC for Mycobacterium tuberculosis. Type of data set: functional.
A short description of data set [7]: clinical. The conditions noted are these: human, in vivo, po, 1000 mg/day.
Description: Cmax in tuberculosis patient at 1000 mg/day, po administered for 7 days by HPLC

As a reminder, the Tmax is the time at which the peak concentration occurs. In the case of `COc1c(N2CCNC(C)C2)c(F)cc2c(=O)c(C(=O)O)cn(C3CC3)c12` (centres undefined) [GATIFLOXACIN], the Tmax in data set [1] came out at 8 h. The Tmax at 168 h in the data set “clinical [2]” worked out at 2 h. Further, the MIC in data set [3] was found to be 0.2 µg/mL (≈ 0.533 µM).
The CL/F is clearance divided by bioavailability, as obtained after extravascular dosing. As usually defined, the Cmax is the highest concentration seen after dosing. The compound `C[C@H]1COc2c(N3CCN(C)CC3)c(F)cc3c(=O)c(C(=O)O)cn1c23.C[C@H]1COc2c(N3CCN(C)CC3)c(F)cc3c(=O)c(C(=O)O)cn1c23.O` [LEVOFLOXACIN] yielded a CL/F in data set [4] of 79 mL/min. Also, the MIC in data set [5] was 0.5 µg/mL. In addition, the RatioAUC/MIC in data set [6] stood at 187.67. Moreover, the concentration in “clinical [7]” peaked (Cmax at 168 h) at 9000 ng/mL.
In the case of `COc1c(N2C[C@@H]3CCCN[C@@H]3C2)c(F)cc2c(=O)c(C(=O)O)cn(C3CC3)c12` [MOXIFLOXACIN], the Tmax at 168 h in “clinical [2]” worked out at 2 h. Besides, in data set [3], the MIC was determined as 0.5 µg/mL (≈ 1.25 µM).
